Results as given in ChEMBL document CHEMBL3739343, “Identification and activity of inhibitors of the essential nematode-specific metalloprotease DPY-31” (Bioorg Med Chem Lett, 2015).
The source made the active and inactive calls. The calls are words filed in the database; no cut-off is given here. Where a SMILES comes first, the peptide text is derived from it.

Assays:
[1] = target: T1, Zinc metalloproteinase dpy-31 (Brugia malayi, UniProt A8Q2D1); assay: Inhibition of recombinant Brugia malayi DPY-31 astacin domain expressed in Escherichia coli using Suc-Ala-Ala-Ala-pNA as substrate preincubated for 3 hrs followed by substrate addition measured after 3 hrs by microplate reader assay
T1 sequence (A8Q2D1 whole entry): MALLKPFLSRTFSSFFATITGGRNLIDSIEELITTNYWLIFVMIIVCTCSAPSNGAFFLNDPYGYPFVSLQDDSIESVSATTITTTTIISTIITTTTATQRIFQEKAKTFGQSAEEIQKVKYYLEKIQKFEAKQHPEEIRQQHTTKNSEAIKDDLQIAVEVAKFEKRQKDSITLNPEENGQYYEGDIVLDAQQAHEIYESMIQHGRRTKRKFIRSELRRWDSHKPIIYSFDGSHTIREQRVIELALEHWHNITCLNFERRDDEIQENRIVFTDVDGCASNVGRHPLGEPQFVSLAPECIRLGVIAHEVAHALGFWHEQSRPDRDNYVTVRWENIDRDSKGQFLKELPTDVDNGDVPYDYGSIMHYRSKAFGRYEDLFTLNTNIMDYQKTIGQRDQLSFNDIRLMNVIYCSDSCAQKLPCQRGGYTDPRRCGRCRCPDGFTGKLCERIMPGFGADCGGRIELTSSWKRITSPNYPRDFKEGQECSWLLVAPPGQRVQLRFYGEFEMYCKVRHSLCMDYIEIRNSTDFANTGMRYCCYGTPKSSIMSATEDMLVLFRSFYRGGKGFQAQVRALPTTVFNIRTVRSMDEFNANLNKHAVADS

[2] = target: T2, Zinc metalloproteinase dpy-31 (Teladorsagia circumcincta, UniProt A0A0C5PRQ1); assay: Inhibition of recombinant Teladorsagia circumcincta DPY-31 astacin domain expressed in Escherichia coli using Suc-Ala-Ala-Ala-pNA as substrate preincubated for 3 hrs followed by substrate addition measured after 3 hrs by microplate reader assay
T2 sequence (A0A0C5PRQ1 whole entry): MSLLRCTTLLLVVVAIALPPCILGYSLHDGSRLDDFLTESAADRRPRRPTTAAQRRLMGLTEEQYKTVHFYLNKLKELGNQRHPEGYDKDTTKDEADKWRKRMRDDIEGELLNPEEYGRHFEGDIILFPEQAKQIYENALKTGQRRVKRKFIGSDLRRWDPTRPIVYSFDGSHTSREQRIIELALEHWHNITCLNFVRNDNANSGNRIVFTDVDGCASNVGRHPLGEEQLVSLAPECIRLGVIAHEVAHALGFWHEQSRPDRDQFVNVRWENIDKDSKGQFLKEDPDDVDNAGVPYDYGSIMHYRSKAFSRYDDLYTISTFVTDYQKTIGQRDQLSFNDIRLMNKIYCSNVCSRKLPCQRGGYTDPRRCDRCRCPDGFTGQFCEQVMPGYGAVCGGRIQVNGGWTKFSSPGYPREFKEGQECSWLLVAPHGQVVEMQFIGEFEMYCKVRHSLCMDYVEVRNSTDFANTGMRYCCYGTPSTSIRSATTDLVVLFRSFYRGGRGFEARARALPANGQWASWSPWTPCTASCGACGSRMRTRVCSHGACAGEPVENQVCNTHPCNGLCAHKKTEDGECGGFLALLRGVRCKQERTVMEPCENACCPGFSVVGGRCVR

[3] = test system: Teladorsagia circumcincta; assay: Antiparasitic activity against Teladorsagia circumcincta L3 assessed as induction of Dpy phenotype at 500 uM after 3 days by microscopic analysis; type: functional, organism-based
Caenorhabditis elegans [4] = assay: Antiparasitic activity against Teladorsagia circumcincta dpy-31 transgenically-rescued Caenorhabditis elegans dpy-31 mutant TP224 assessed as induction of Dpy phenotype at 100 uM after 3 days by microscopic analysis; type: functional, organism-based
Caenorhabditis elegans [5] = assay: Antiparasitic activity against wild type Caenorhabditis elegans N2 assessed as induction of Dpy phenotype at 50 uM measured after 3 days by microscopic analysis; type: functional, organism-based

| SMILES | IC50 ([1]; read-out: pIC50 (converted)) [µM] | IC50 [2] [µM] | IC50 ([1]; read-out: IC50) [µM] | Activity [3] | Activity (Caenorhabditis elegans [4]) | Activity (Caenorhabditis elegans [5]) |
| --- | --- | --- | --- | --- | --- | --- |
| O=C(C[C@@H](CCCC1CCCCC1)c1nc(-c2cc(C(=O)O)ccn2)no1)NO | 20 | 39.8 | – | – | – | – |
| COC(=O)[C@@H]1CCCN1C(=O)[C@H](C)CP(=O)(O)[C@H](Cc1ccccc1)NC(=O)[C@H](CCCCN)NC(=O)[C@@H]1CCCN1C(=O)OCc1ccccc1 | – | – | > 500 | – | – | – |
| C[C@H](NC(=O)[C@@H]1CCCN1C(=O)OC(C)(C)C)C(=O)N[C@@H](Cc1ccccc1)C(=O)NO (HELM PEPTIDE1{[CC(C)(C)OC(=O)[*:2]].P.A.F.[ON[*:1]]}$$$$V2.0) | 79.4 | 25.1 | – | Active | Active | Active |
| C[C@H](NC(=O)[C@@H]1CCCN1C(=O)OCC1c2ccccc2-c2ccccc21)C(=O)N[C@@H](Cc1ccccc1)C(=O)NO (HELM PEPTIDE1{[O=C(OCC1c2ccccc2-c2ccccc21)[*:2]].P.A.F.[ON[*:1]]}$$$$V2.0) | 25.1 | 31.6 | – | Active | Active | Active |
| CNC(=O)[C@@H](NC(=O)[C@H](CC(C)C)[C@H](O)C(=O)NO)C(C)(C)C [MARIMASTAT] | – | 79.4 | – | – | – | – |
